Format in all cases: functional
Common to all, as to settings: read-out: GI

For test [1], the system named is Brassica rapa subsp. oleifera. The experiment in a line: Herbicidal activity against Brassica rapa subsp. oleifera assessed as inhibition of root growth of rape seed at 100 ug/mL for 65 hr at 28 +/- 1 degC by root test.
In test [2] the test system is Echinochloa crus-galli. The experiment in a line: Herbicidal activity against Echinochloa crus-galli (barnyard grass) assessed as inhibition of seedling growth at 10 ug/mL for 65 hr at 28 +/- 1 degC by cup test.
For test [3], the system named is Echinochloa crus-galli. The test is described as follows: Herbicidal activity against Echinochloa crus-galli (barnyard grass) assessed as inhibition of seedling growth at 100 ug/mL for 65 hr at 28 +/- 1 degC by cup test.
For test [4], the system named is Brassica rapa subsp. oleifera. The experiment in a line: Herbicidal activity against Brassica rapa subsp. oleifera assessed as inhibition of root growth of rape seed at 10 ug/mL for 65 hr at 28 +/- 1 degC by root test.

For the compound `C=CCOc1cc(-n2nnc3c(C(=O)OCC)c(C(F)(F)F)nn3c2=O)c(F)cc1Cl`, the values for the inhibition of growth at 100 µg/mL in test [1] and in test [3] were 2% and 16%, respectively. The inhibition of growth at 10 µg/mL in test [2] and in test [4] was 0% throughout.
As to `CCCOc1cc(-n2nnc3c(C(=O)OCC)c(C)nn3c2=O)c(F)cc1Cl`, the inhibition of growth at 100 µg/mL in test [1] was 0%; in test [3] it was 18%. The inhibition of growth at 10 µg/mL in test [2] and in test [4] was 0% in each case.
For `CCCOc1cc(-n2nnc3c(C(=O)OCC)c(SC)nn3c2=O)c(F)cc1Cl`, the figures for the inhibition of growth at 100 µg/mL in test [1] and in test [3] were 2% and 12%, respectively. The inhibition of growth at 10 µg/mL in test [2] and in test [4] was 0% in each case.
In the case of `CCCOc1cc(-n2nnc3c(C(=O)OCC)c(C(F)(F)F)nn3c2=O)c(F)cc1Cl`, the inhibition of growth at 100 µg/mL in test [1] came to 5%; in test [3] it was 20%. The inhibition of growth at 10 µg/mL in test [2] and in test [4] was 0% each time.
Turning to `CCOC(=O)c1c(SC)nn2c(=O)n(-c3cc(OC(C)C)c(Cl)cc3F)nnc12`, the inhibition of growth at 100 µg/mL in test [1] is 13%; in test [3], 20%. Besides, the inhibition of growth at 10 µg/mL in test [2] and in test [4] was 0% throughout.
In the case of `CCOC(=O)c1c(SC)nn2c(=O)n(-c3cccc(C(F)(F)F)c3)nnc12`, the inhibition of growth at 100 µg/mL in test [1] was found to be 37%; in test [3], 0%. Also, the results for the inhibition of growth at 10 µg/mL in test [2] and in test [4] were 0% and 34%, respectively.
As to `CCOC(=O)c1c(C(F)(F)F)nn2c(=O)n(-c3cccc(C(F)(F)F)c3)nnc12`, the values for the inhibition of growth at 100 µg/mL in test [1] and in test [3] were 14% and 1%, respectively. Further, the inhibition of growth at 10 µg/mL in test [2] and in test [4] was 0% throughout.
For `CCOC(=O)c1c(C)nn2c(=O)n(-c3ccccc3C(F)(F)F)nnc12`, the inhibition of growth at 100 µg/mL in test [1] came to 86%; in test [3] it was 6%. Further, the inhibition of growth at 10 µg/mL in test [2] was 0%; in test [4], 5%.
For `CCOC(=O)c1c(SC)nn2c(=O)n(-c3ccccc3C(F)(F)F)nnc12`, the inhibition of growth at 100 µg/mL came out at 23% in test [1] and 0% in test [3]. In addition, the inhibition of growth at 10 µg/mL in test [2] and in test [4] was 0% each time.
`CCOC(=O)c1c(C(F)(F)F)nn2c(=O)n(-c3ccccc3C(F)(F)F)nnc12`: the inhibition of growth at 100 µg/mL in test [1] and in test [3] was 9% each time. The inhibition of growth at 10 µg/mL turned out to be 0% in test [2] and 7% in test [4].
With `CCOC(=O)c1c(C)nn2c(=O)n(-c3ccc(C(F)(F)F)cc3)nnc12`, the inhibition of growth at 100 µg/mL in test [1] is 90%; in test [3], 10%. In addition, the inhibition of growth at 10 µg/mL in test [2] was 0%; in test [4], 82%.
Regarding `CCOC(=O)c1c(SC)nn2c(=O)n(-c3ccc(C(F)(F)F)cc3)nnc12`, the inhibition of growth at 100 µg/mL amounted to 18% in test [1] and 22% in test [3]. Moreover, the inhibition of growth at 10 µg/mL in test [2] was found to be 2%; in test [4], 4%.
Taken in the same sequence, the figures for `CCOC(=O)c1c(C(F)(F)F)nn2c(=O)n(-c3ccc(C(F)(F)F)cc3)nnc12` were 2%, 18%, 9% and 0%.
On to `CCOC(=O)c1c(C)nn2c(=O)n(-c3ccc(Cl)cc3C(F)(F)F)nnc12`, for which the inhibition of growth at 100 µg/mL in test [1] worked out at 63%; in test [3], 14%. Moreover, the inhibition of growth at 10 µg/mL came to 6% in test [2] and 0% in test [4].
In the case of `CCOC(=O)c1c(C(F)(F)F)nn2c(=O)n(-c3ccc(Cl)cc3C(F)(F)F)nnc12`, the inhibition of growth at 100 µg/mL amounted to 0% in test [1] and 21% in test [3]. The inhibition of growth at 10 µg/mL in test [2] and in test [4] was 0% each time.
Turning to `CCOC(=O)c1c(C)nn2c(=O)n(-c3cc(C(F)(F)F)ccc3Cl)nnc12`, the inhibition of growth at 100 µg/mL in test [1] came out at 65%; in test [3], 0%. In addition, the inhibition of growth at 10 µg/mL in test [2] was 0%; in test [4], 61%.
`CCOC(=O)c1c(SC)nn2c(=O)n(-c3cc(C(F)(F)F)ccc3Cl)nnc12`: the inhibition of growth at 100 µg/mL in test [1] was determined as 13%; in test [3], 11%. The inhibition of growth at 10 µg/mL in test [2] stood at 2%; in test [4] it was 0%.
For `CCOC(=O)c1c(C(F)(F)F)nn2c(=O)n(-c3cc(C(F)(F)F)ccc3Cl)nnc12`, the results for the inhibition of growth at 100 µg/mL in test [1] and in test [3] were 10% and 2%, respectively. Also, the inhibition of growth at 10 µg/mL in test [2] and in test [4] was 0% each time.
As to `CCOC(=O)c1c(C)nn2c(=O)n(-c3ccc(Cl)c(C(F)(F)F)c3)nnc12`, the inhibition of growth at 100 µg/mL in test [1] was determined as 89%; in test [3], 4%. The results for the inhibition of growth at 10 µg/mL in test [2] and in test [4] were 0% and 89%, respectively.
For the compound `CCOC(=O)c1c(SC)nn2c(=O)n(-c3ccc(Cl)c(C(F)(F)F)c3)nnc12`, the results for the inhibition of growth at 100 µg/mL in test [1] and in test [3] were 24% and 26%, respectively. Besides, the inhibition of growth at 10 µg/mL is 0% in test [2] and 22% in test [4].
Taken in the same sequence, the figures for `CCOC(=O)c1c(C)nn2c(=O)n(-c3c(Cl)cc(C(F)(F)F)cc3Cl)nnc12` were 25%, 22%, 0% and 4%.
For `CCOC(=O)c1c(SC)nn2c(=O)n(-c3c(Cl)cc(C(F)(F)F)cc3Cl)nnc12` the same measures were 9%, 28%, 3% and 3%.
Taken in the same sequence, the figures for `CCOC(=O)c1c(C(F)(F)F)nn2c(=O)n(-c3c(Cl)cc(C(F)(F)F)cc3Cl)nnc12` were 22%, 15%, 0% and 2%.
As to `CCOC(=O)c1c(C(F)(F)F)nn2c(=O)n(-c3ccc(Cl)c(C(F)(F)F)c3)nnc12`, the inhibition of growth at 100 µg/mL worked out at 14% in test [1] and 0% in test [3]. Besides, the inhibition of growth at 10 µg/mL is 0% in test [2] and 13% in test [4].
As to `CC#COc1cc(-n2nnc3c(C(=O)OCC)c(SC)nn3c2=O)c(F)cc1Cl`, the inhibition of growth at 100 µg/mL in test [1] worked out at 0%; in test [3] it was 32%. For the same compound, the inhibition of growth at 10 µg/mL in test [2] and in test [4] was 0% each time.
Turning to `CC#COc1cc(-n2nnc3c(C(=O)OCC)c(C(F)(F)F)nn3c2=O)c(F)cc1Cl`, the figures for the inhibition of growth at 100 µg/mL in test [1] and in test [3] were 0% and 28%, respectively. For the same compound, the inhibition of growth at 10 µg/mL in test [2] and in test [4] was 0% throughout.
On to `C=CCOc1cc(-n2nnc3c(C(=O)OCC)c(C)nn3c2=O)c(F)cc1Cl`, for which the inhibition of growth at 100 µg/mL in test [1] came to 0%; in test [3] it was 24%. The inhibition of growth at 10 µg/mL in test [2] and in test [4] was 0% each time.
For `C=CCOc1cc(-n2nnc3c(C(=O)OCC)c(SC)nn3c2=O)c(F)cc1Cl`, the values for the inhibition of growth at 100 µg/mL in test [1] and in test [3] were 25% and 22%, respectively. The inhibition of growth at 10 µg/mL in test [2] and in test [4] was 0% each time.

For the origin of these results see ChEMBL document CHEMBL3045573, “Design, synthesis, and quantitative structure-activity relationship study of herbicidal analogues of pyrazolo[5,1-d][1,2,3,5]tetrazin-4(3H)ones” (2007).
